According to BindingDB's records for PubMed 2841449 (Merck Sharp & Dohme Research Laboratories, 1988):

Legend:
Beta-arrestin-1 = Beta-arrestin-1 (Oryctolagus cuniculus, UniProt Q95223)
[1] = target: Platelet-activating factor receptor (Homo sapiens, UniProt P25105)
Sequence of Platelet-activating factor receptor (P25105 whole entry): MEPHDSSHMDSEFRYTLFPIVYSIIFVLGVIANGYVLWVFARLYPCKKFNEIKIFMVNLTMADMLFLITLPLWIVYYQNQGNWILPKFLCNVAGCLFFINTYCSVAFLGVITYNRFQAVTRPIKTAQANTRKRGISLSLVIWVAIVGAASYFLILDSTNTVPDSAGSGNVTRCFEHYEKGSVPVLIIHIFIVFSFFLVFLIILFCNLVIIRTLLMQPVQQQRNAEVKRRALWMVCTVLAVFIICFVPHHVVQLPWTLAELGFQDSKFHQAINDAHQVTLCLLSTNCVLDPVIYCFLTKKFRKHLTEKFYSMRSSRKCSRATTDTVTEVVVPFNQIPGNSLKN

Sequence of Beta-arrestin-1 (Q95223 whole entry): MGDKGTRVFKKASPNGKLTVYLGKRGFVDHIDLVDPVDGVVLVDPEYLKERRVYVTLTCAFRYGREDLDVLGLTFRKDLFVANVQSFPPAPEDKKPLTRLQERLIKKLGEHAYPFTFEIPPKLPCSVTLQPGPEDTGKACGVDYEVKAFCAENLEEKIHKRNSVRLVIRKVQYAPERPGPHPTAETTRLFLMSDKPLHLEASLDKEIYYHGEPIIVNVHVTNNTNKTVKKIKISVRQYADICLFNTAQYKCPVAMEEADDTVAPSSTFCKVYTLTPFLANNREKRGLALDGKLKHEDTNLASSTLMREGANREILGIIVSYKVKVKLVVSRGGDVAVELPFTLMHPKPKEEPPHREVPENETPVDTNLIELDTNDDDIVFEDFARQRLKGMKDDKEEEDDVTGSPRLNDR

CCCOc1c(OC)cc([C@H]2CC[C@H](c3cc(OC)c(OC)c(OC)c3)O2)cc1S(C)(=O)=O [L-659,989, (-)] showed a Ki (Beta-arrestin-1) of 0.51 nM and a Ki [1] of 5.48 nM.
